Laboratory results from publication PMC6959545 (European journal of medicinal chemistry, 2013).
Blank lines part the entries; values can stand above or below the compound they belong to.

Assays:
human TRPV1 [1] = target: T1, human TRPV1 (Homo sapiens, UniProt Q8NER1); test: hTRPV1 antagonism of pH activation, FLIPR; type: cell-based; settings: compound 1 vs lead 2
human TRPV1 [2] = target: T1, human TRPV1; test: hTRPV1 antagonism of capsaicin; type: cell-based; settings: for fold less potent than 11, CAP antagonism: compared with 2-butoxy derivative 11; for fold less potent than 12, CAP antagonism: compared with 2-pentyloxy derivative 12
mice (formalin test) = test: formalin test in mice, oral administration; type: in vivo

T1 sequence (Q8NER1 whole entry): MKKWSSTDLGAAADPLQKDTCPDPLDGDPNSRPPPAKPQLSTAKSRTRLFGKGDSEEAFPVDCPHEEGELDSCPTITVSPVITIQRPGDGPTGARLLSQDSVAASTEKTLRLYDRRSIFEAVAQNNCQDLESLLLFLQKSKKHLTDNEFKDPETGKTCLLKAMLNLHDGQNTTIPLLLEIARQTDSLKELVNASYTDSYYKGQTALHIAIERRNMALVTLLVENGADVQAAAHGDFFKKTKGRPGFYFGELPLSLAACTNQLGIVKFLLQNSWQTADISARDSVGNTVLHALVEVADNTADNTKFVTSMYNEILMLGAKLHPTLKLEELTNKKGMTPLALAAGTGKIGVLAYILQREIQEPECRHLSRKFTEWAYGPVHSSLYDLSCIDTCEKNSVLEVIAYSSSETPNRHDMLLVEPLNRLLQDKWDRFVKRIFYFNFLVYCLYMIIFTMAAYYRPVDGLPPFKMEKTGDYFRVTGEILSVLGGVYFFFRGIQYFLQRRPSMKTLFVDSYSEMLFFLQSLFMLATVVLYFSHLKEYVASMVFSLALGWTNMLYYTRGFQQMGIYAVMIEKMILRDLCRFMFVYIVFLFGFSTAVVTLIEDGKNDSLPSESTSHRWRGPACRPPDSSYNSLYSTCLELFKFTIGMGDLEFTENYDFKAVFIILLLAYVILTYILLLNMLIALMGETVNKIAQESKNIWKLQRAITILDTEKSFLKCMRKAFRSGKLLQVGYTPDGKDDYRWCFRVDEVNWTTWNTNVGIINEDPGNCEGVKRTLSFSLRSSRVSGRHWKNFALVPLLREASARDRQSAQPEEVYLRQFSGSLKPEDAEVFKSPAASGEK

- fold better than precedent lead 2, pH antagonism (human TRPV1 [1]): 230 fold
- fold better than precedent lead 2, CAP antagonism (human TRPV1 [2]; compound 1 vs lead 2): 150 fold
Structure (SMILES): CC1CCN(c2nc(C(F)(F)F)ccc2CNC(=O)C(C)c2ccc(NS(C)(=O)=O)c(F)c2)CC1 (stereo not shown) [Compound 1, reference compound]

Structure (SMILES): C/C=C\COc1nc(C(F)(F)F)ccc1CNC(=O)C(C)c1ccc(NS(C)(=O)=O)c(F)c1 (stereo not shown) [Compound 14, (Z)-N-((2-(But-2-en-1-yloxy)-6-(trifluoromethyl)pyridin-3-yl)methyl)-2-(3-fluoro-4-(methylsulfonamido)phenyl)propanamide]
- fold less potent than 11, CAP antagonism (human TRPV1 [2]): ca. 5 fold

- fold less potent than 12, CAP antagonism (human TRPV1 [2]): ~1.5 fold
Structure (SMILES): CC/C=C\COc1nc(C(F)(F)F)ccc1CNC(=O)C(C)c1ccc(NS(C)(=O)=O)c(F)c1 (stereo not shown) [Compound 15, (Z)-N-((2-(Pent-2-en-1-yloxy)-6-(trifluoromethyl)pyridin-3-yl)methyl)-2-(3-fluoro-4-(methylsulfonamido)phenyl)propanamide]

Structure (SMILES): COCCOc1nc(C(F)(F)F)ccc1CNC(=O)C(C)c1ccc(NS(C)(=O)=O)c(F)c1 (stereo not shown) [Compound 16, N-((2-(2-Methoxyethoxy)-6-(trifluoromethyl)pyridin-3-yl)methyl)-2-(3-fluoro-4-(methylsulfonamido)phenyl)propanamide]
- fold less potent than 11, CAP antagonism (human TRPV1 [2]): 160 fold

- fold less potent than 12, CAP antagonism (human TRPV1 [2]): 70 fold
Structure (SMILES): CCOCCOc1nc(C(F)(F)F)ccc1CNC(=O)C(C)c1ccc(NS(C)(=O)=O)c(F)c1 (stereo not shown) [Compound 17, N-((2-(2-Ethoxyethoxy)-6-(trifluoromethyl)pyridin-3-yl)methyl)-2-(3-fluoro-4-(methylsulfonamido)phenyl)propanamide]

- fold less potent than 12, CAP antagonism (human TRPV1 [2]): 22 fold
Structure (SMILES): COCCCOc1nc(C(F)(F)F)ccc1CNC(=O)C(C)c1ccc(NS(C)(=O)=O)c(F)c1 (stereo not shown) [Compound 18, N-((2-(3-Methoxypropoxy)-6-(trifluoromethyl)pyridin-3-yl)methyl)-2-(3-fluoro-4-(methylsulfonamido)phenyl)propanamide]

- fold less potent than 13, CAP antagonism (human TRPV1 [2]; compared with 2-hexyloxy derivative 13): 20 fold
Structure (SMILES): CCOCCCOc1nc(C(F)(F)F)ccc1CNC(=O)C(C)c1ccc(NS(C)(=O)=O)c(F)c1 (stereo not shown) [Compound 19, N-((2-(3-Ethoxypropoxy)-6-(trifluoromethyl)pyridin-3-yl)methyl)-2-(3-fluoro-4-(methylsulfonamido)phenyl)propanamide]

Structure (SMILES): CC(C)COc1nc(C(F)(F)F)ccc1CNC(=O)C(C)c1ccc(NS(C)(=O)=O)c(F)c1 (stereo not shown) [Compound 22, N-((2-Isobutoxy-6-(trifluoromethyl)pyridin-3-yl)methyl)-2-(3-fluoro-4-(methylsulfonamido)phenyl)propanamide]
- analgesic activity in the formalin test (mice (formalin test)): strong analgesic activity

Structure (SMILES): CC(C(=O)NCc1ccc(C(F)(F)F)nc1OCc1ccccc1)c1ccc(NS(C)(=O)=O)c(F)c1 (stereo not shown) [Compound 53, N-((2-Benzyloxy-6-(trifluoromethyl)pyridin-3-yl)methyl)-(3-fluoro-4-(methylsulfonamido)phenyl)propanamide]
- analgesic activity in the formalin test (mice (formalin test)): strong analgesic activity
